Experimental data as given in patent US8877748B2, “Heterocyclic fused anthraquinone derivatives, manufacturing method and pharmaceutical composition using thereof” (National Defense Medical Center, priority 2012, dated 2014).

What was measured:
Type in all cases: cell-based, human
[1] = tested on: PC-3 prostate cancer cell line; assay: SRB assay cell viability, PC-3 prostate cancer cell line; settings: Homo sapiens, PC-3 prostate cancer cell line, Table II prints no unit, μM printed, read-out: SRB assay: 50% inhibition of cancer cell proliferation of sample concentration (IC50) of PC-3 prostate cancer cell line
CCRF-CEM = assay: NCI screening platform one-dose single concentration screening, leukemia CCRF-CEM; settings: 10 μM
HL-60, TB = assay: NCI one-dose screening, leukemia HL-60, TB; settings: 10 μM
MOLT-4 = assay: NCI one-dose screening, leukemia MOLT-4; settings: 10 μM
SR = assay: NCI one-dose screening, leukemia SR; settings: 10 μM
PRMI-8226 cell line = assay: NCI one-dose screening, leukemia PRMI-8226; settings: 10 μM
K562cell line = assay: NCI one-dose screening, leukemia K562; settings: 10 μM
EKVX = assay: NCI one-dose screening, non-small cell lung cancer EKVX; settings: 10 μM
HOP-62 = assay: NCI one-dose screening, non-small cell lung cancer HOP-62; settings: 10 μM
NCI-H226 = assay: NCI one-dose screening, non-small cell lung cancer NCI-H226; settings: 10 μM
NCI-H23 = assay: NCI one-dose screening, non-small cell lung cancer NCI-H23; settings: 10 μM
NCI-H322M = assay: NCI one-dose screening, non-small cell lung cancer NCI-H322M; settings: 10 μM; Non-small cell lung cancer
NCI-H460 = assay: NCI one-dose screening, non-small cell lung cancer NCI-H460; settings: 10 μM
NCI-H522 = assay: NCI one-dose screening, non-small cell lung cancer NCI-H522; settings: 10 μM
A549/ATCC = assay: NCI one-dose screening, non-small cell lung cancer A549/ATCC; settings: 10 μM
COLO 205 = assay: NCI one-dose screening, colon cancer COLO 205; settings: 10 μM
HCC-2998 = assay: NCI one-dose screening, colon cancer HCC-2998; settings: 10 μM
HCT-116 = assay: NCI one-dose screening, colon cancer HCT-116; settings: 10 μM
HCT-15 = assay: NCI one-dose screening, colon cancer HCT-15; settings: 10 μM
KM12 = assay: NCI one-dose screening, colon cancer KM12; settings: 10 μM
HT29 = assay: NCI one-dose screening, colon cancer HT29; settings: 10 μM
SF-268 = assay: NCI one-dose screening, CNS cancer SF-268; settings: 10 μM
SF-295 = assay: NCI one-dose screening, CNS cancer SF-295; settings: 10 μM
SF-539 = assay: NCI one-dose screening, CNS cancer SF-539; settings: 10 μM
SNB-19 = assay: NCI one-dose screening, CNS cancer SNB-19; settings: 10 μM
SNB-75 = assay: NCI one-dose screening, CNS cancer SNB-75; settings: 10 μM
U251 = assay: NCI one-dose screening, CNS cancer U251; settings: 10 μM
LOX IMVI = assay: NCI one-dose screening, melanoma LOX IMVI; settings: 10 μM
MALME-3M = assay: NCI one-dose screening, melanoma MALME-3M; settings: 10 μM
M14 = assay: NCI one-dose screening, melanoma M14; settings: 10 μM
UACC-62 = assay: NCI one-dose screening, melanoma UACC-62; settings: 10 μM
UACC-257 = assay: NCI one-dose screening, melanoma UACC-257; settings: 10 μM
SK-MEL-2 = assay: NCI one-dose screening, melanoma SK-MEL-2; settings: 10 μM
SK-MEL-28 = assay: NCI one-dose screening, melanoma SK-MEL-28; settings: 10 μM
SK-MEL-5 = assay: NCI one-dose screening, melanoma SK-MEL-5; settings: 10 μM
IGROV1 = assay: NCI one-dose screening, ovarian cancer IGROV1; settings: 10 μM
OVCAR-3 = assay: NCI one-dose screening, ovarian cancer OVCAR-3; settings: 10 μM
OVCAR-4 = assay: NCI one-dose screening, ovarian cancer OVCAR-4; settings: 10 μM
OVCAR-5 = assay: NCI one-dose screening, ovarian cancer OVCAR-5; settings: 10 μM
OVCAR-8 = assay: NCI one-dose screening, ovarian cancer OVCAR-8; settings: 10 μM
786-O = assay: NCI one-dose screening, renal cancer 786-O; settings: 10 μM
CAKI-1 = assay: NCI one-dose screening, renal cancer CAKI-1; settings: 10 μM
ACHN = assay: NCI one-dose screening, renal cancer ACHN; settings: 10 μM
SN12C = assay: NCI one-dose screening, renal cancer SN12C; settings: 10 μM
TK-10 = assay: NCI one-dose screening, renal cancer TK-10; settings: 10 μM
RXF, 393 = assay: NCI one-dose screening, renal cancer RXF, 393; settings: 10 μM
NCl/ADR-RES = assay: NCI one-dose screening, breast cancer NCl/ADR-RES; settings: 10 μM; listed under Ovarian cancer
MDA, -MB-435 = assay: NCI one-dose screening, breast cancer MDA, -MB-435; settings: 10 μM; listed under Melanoma

Cc1cccc(C)c1Sc1cc2c(c3nsnc13)C(=O)c1ccccc1C2=O [C55, 4-(2,6-dimethylphenylthio)anthra[2,1-c] [1,2,5]thiadiazol-6,11-dione]
IC50 [1]: 6.74 µM | Growth Percent CCRF-CEM (CCRF-CEM): 34.84% | Growth Percent HL-60(TB) (HL-60, TB): 47.83% | Growth Percent MOLT-4 (MOLT-4): 32.64% | Growth Percent SR (SR): 35.52% | Growth Percent RPMI-8226 (PRMI-8226 cell line): 55.63% | Growth Percent K562 (K562cell line): 43.14% | Growth Percent EKVX (EKVX): 82.44% | Growth Percent HOP-62 (HOP-62): 90.01% | Growth Percent NCI-H226 (NCI-H226): 78.31% | Growth Percent NCI-H23 (NCI-H23): 67.37% | Growth Percent NCI-H322M (NCI-H322M): 83.83% | Growth Percent NCI-H460 (NCI-H460): 87.37% | Growth Percent NCI-H522 (NCI-H522): 61.39% | Growth Percent A549/ATCC (A549/ATCC): 90.16% | Growth Percent COLO 205 (COLO 205): 98.76% | Growth Percent HCC-2998 (HCC-2998): 100.96% | Growth Percent HCT-116 (HCT-116): 64.99% | Growth Percent HCT-15 (HCT-15): 47.54% | Growth Percent KM12 (KM12): 95.96% | Growth Percent HT29 (HT29): 97.73% | Growth Percent SF-268 (SF-268): 79.48% | Growth Percent SF-295 (SF-295): 91.11% | Growth Percent SF-539 (SF-539): 84.51% | Growth Percent SNB-19 (SNB-19): 94.75% | Growth Percent SNB-75 (SNB-75): 69.38% | Growth Percent U251 (U251): 53.94% | Growth Percent LOX IMVI (LOX IMVI): 44.61% | Growth Percent MALME-3M (MALME-3M): 73.72% | Growth Percent M14 (M14): 121.55% | Growth Percent UACC-62 (UACC-62): 91.72% | Growth Percent UACC-257 (UACC-257): 86.57% | Growth Percent SK-MEL-2 (SK-MEL-2): 67.54% | Growth Percent SK-MEL-28 (SK-MEL-28): 89.33% | Growth Percent SK-MEL-5 (SK-MEL-5): 70.23% | Growth Percent IGROV1 (IGROV1): 66.38% | Growth Percent OVCAR-3 (OVCAR-3): 1.00% | Growth Percent OVCAR-4 (OVCAR-4): 4.00% | Growth Percent OVCAR-5 (OVCAR-5): 113.96% | Growth Percent OVCAR-8 (OVCAR-8): 58.98% | Growth Percent 786-0 (786-O): 115.19% | Growth Percent CAKI-1 (CAKI-1): 61.03% | Growth Percent ACHN (ACHN): 83.18% | Growth Percent SN12C (SN12C): 67.67% | Growth Percent TK-10 (TK-10): 119.41% | Growth Percent RXF 393 (RXF, 393): 76.16% | Growth Percent NCI/ADR-RES (NCl/ADR-RES): 59.68% | Growth Percent MDA-MB-435 (MDA, -MB-435): 96.77%

O=C1c2ccccc2C(=O)c2c1cc(Nc1ccc(Cl)cc1F)c1nsnc21 [C65, 4-(4-chloro-2-fluoro-phenylamino)anthra [2,1-c][1,2,5]thiadiazol-6,11-dione]
IC50 [1]: > 15 µM | Growth Percent CCRF-CEM (CCRF-CEM): 29.84% | Growth Percent HL-60(TB) (HL-60, TB): 8.17% | Growth Percent MOLT-4 (MOLT-4): 20.18% | Growth Percent SR (SR): 23.58% | Growth Percent RPMI-8226 (PRMI-8226 cell line): 40.73% | Growth Percent K562 (K562cell line): 35.29% | Growth Percent EKVX (EKVX): 80.90% | Growth Percent HOP-62 (HOP-62): 79.67% | Growth Percent NCI-H226 (NCI-H226): 74.35% | Growth Percent NCI-H23 (NCI-H23): 53.59% | Growth Percent NCI-H322M (NCI-H322M): 91.66% | Growth Percent NCI-H460 (NCI-H460): 81.55% | Growth Percent NCI-H522 (NCI-H522): 47.67% | Growth Percent A549/ATCC (A549/ATCC): 69.22% | Growth Percent COLO 205 (COLO 205): 90.97% | Growth Percent HCC-2998 (HCC-2998): 97.85% | Growth Percent HCT-116 (HCT-116): 52.51% | Growth Percent HCT-15 (HCT-15): 45.61% | Growth Percent KM12 (KM12): 83.42% | Growth Percent HT29 (HT29): 98.33% | Growth Percent SF-268 (SF-268): 69.25% | Growth Percent SF-295 (SF-295): 86.04% | Growth Percent SF-539 (SF-539): 75.99% | Growth Percent SNB-19 (SNB-19): 94.57% | Growth Percent SNB-75 (SNB-75): 83.19% | Growth Percent U251 (U251): 43.08% | Growth Percent LOX IMVI (LOX IMVI): 29.97% | Growth Percent MALME-3M (MALME-3M): 58.74% | Growth Percent M14 (M14): 118.36% | Growth Percent UACC-62 (UACC-62): 85.80% | Growth Percent UACC-257 (UACC-257): 50.45% | Growth Percent SK-MEL-2 (SK-MEL-2): 72.52% | Growth Percent SK-MEL-28 (SK-MEL-28): 87.69% | Growth Percent SK-MEL-5 (SK-MEL-5): 49.49% | Growth Percent IGROV1 (IGROV1): 69.50% | Growth Percent OVCAR-3 (OVCAR-3): 10.25% | Growth Percent OVCAR-4 (OVCAR-4): −4.36% | Growth Percent OVCAR-5 (OVCAR-5): 114.60% | Growth Percent OVCAR-8 (OVCAR-8): 36.77% | Growth Percent 786-0 (786-O): 114.97% | Growth Percent CAKI-1 (CAKI-1): 72.65% | Growth Percent ACHN (ACHN): 74.11% | Growth Percent SN12C (SN12C): 86.43% | Growth Percent TK-10 (TK-10): 110.93% | Growth Percent RXF 393 (RXF, 393): 66.49% | Growth Percent NCI/ADR-RES (NCl/ADR-RES): 48.31% | Growth Percent MDA-MB-435 (MDA, -MB-435): 27.37%
